Test results published in PMC8624998, “Synthesis and Antiproliferative Evaluation of 3-Chloroazetidin-2-ones with Antimitotic Activity: Heterocyclic Bridged Analogues of Combretastatin A-4” (Pharmaceuticals, 2021).
Like-named read-outs stand apart in the source and are kept apart here.

How the values were obtained:
MCF-7 cells = assay: Cell viability assay (MTT/AlamarBlue), antiproliferative activity; type: cell-based, human; conditions: read-out: IC50 (MCF-7, 72 h)
In short: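 MCF-7 cells seeded, left 24 h at 37 °C, then exposed 72 h to compound (1 nM–200 μM, or 0.001–100 μM) in ethanol or DMSO vehicle (≤1% ethanol, 0.1% DMSO). Viability read by MTT (1 mg/mL final, 3 h) or AlamarBlue (10% v/v, 3–5 h), relative to untreated controls as 100%.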

A549/ATCC = assay: NCI-60 5 dose screen, NSC Lung Cancer; type: cell-based; conditions: Homo sapiens
SNB-75 = assay: NCI-60 5 dose screen, CNS Cancer; type: cell-based; conditions: Homo sapiens
PC-3 = assay: NCI-60 5 dose screen, Prostate cancer; type: cell-based; conditions: Homo sapiens
DU-145 = assay: NCI-60 5 dose screen, Prostate cancer; type: cell-based; conditions: Homo sapiens
MALME-3M = assay: NCI-60 5 dose screen, Melanoma; type: cell-based; conditions: Homo sapiens
IGROV1 = assay: NCI-60 5 dose screen, Ovarian Cancer; type: cell-based; conditions: Homo sapiens, IGROV-1
786-0 = assay: NCI-60 5 dose screen, Renal Cancer; type: cell-based; conditions: Homo sapiens
[1] = Homo sapiens, MCF7, 72 h, MCF-7, 72 h

Compound | IC50 (MCF-7 cells; [1]) | GI50 (A549/ATCC; A549/ATCC, read-out: GI50) | GI50 (SNB-75; read-out: GI50) | GI50 (PC-3; read-out: GI50) | GI50 (DU-145; read-out: GI50) | GI50 (MALME-3M; read-out: GI50) | GI50 (IGROV1; IGROV1, read-out: GI50) | GI50 (786-0; read-out: GI50) | IC50 (MCF-7 cells; MCF-7, 72 h) | also measured
COc1ccc([C@H]2[C@H](Cl)C(=O)N2c2cc(OC)c(OC)c(OC)c2)cc1 (relative stereo) [Compound 10e trans, Trans-3-chloro-1-(3,4,5-trimethoxyphenyl)-4-(4-methoxyphenyl) azetidin-2-one] | 0.056 ± 0.007 µM | 0.0785 µM | 0.0382 µM | 0.0441 µM | 0.0446 µM | 0.0884 µM | 0.058 µM | 0.0694 µM |  | 
COc1ccc(/C=C\c2cc(OC)c(OC)c(OC)c2)cc1O [CA-4, Combretastatin A-4] | 0.0039 µM |  |  |  |  |  |  |  | 0.004 µM | 
COc1ccc(C2C(Cl)C(=O)N2c2cc(OC)c(OC)c(OC)c2)cc1O (stereo not shown) [Compound 10n, 3-Chloro-4-(3-hydroxy-4-methoxy-phenyl)-1-(3,4,5-trimethoxyphenyl)azetidin-2-one] | 0.0175 ± 0.009 µM |  |  |  |  |  |  |  | 0.017 ± 0.009 µM | 
CCSc1ccc(C2C(Br)C(=O)N2c2cc(OC)c(OC)c(OC)c2)cc1 (stereo not shown) [Compound 16d, 3-Bromo-4-(4-(ethylthio)phenyl)-1-(3,4,5-trimethoxyphenyl)azetidin-2-one] | 1.1 ± 0.1 µM | 0.598 µM | 0.509 µM | 0.297 µM | 0.349 µM | 11.3 µM | 0.063 µM | 0.34 µM |  | 
COc1ccc(C2N(c3cc(OC)c(OC)c(OC)c3)C(=O)C2(Cl)Cl)cc1O (stereo not shown) [Compound 11n, 3,3-Dichloro-4-(3-hydroxy-4-methoxyphenyl)-1-(3,4,5-trimethoxyphenyl)azetidin-2-one] |  |  |  |  |  |  |  |  |  | IC50 (MCF-7 cells; Homo sapiens, MCF7, 72 h): 0.031 ± 0.004 µM; GI50 (A549/ATCC; A549): 0.0382 µM; GI50 (SNB-75): 0.0199 µM; GI50 (PC-3): 0.0353 µM; GI50 (DU-145): 0.0359 µM; GI50 (MALME-3M): 0.0685 µM; GI50 (IGROV1): 0.0445 µM; GI50 (786-0): 0.0412 µM
